Each structure is given as a SMILES string.

Series [1] can be described thus: Pharmacokinetic in rats: thiol active metabolite in plasma. The class given is in vivo, Male Sprague-Dawley rats. The following applies: rat plasma, oral, 10 mg/kg. As for the experimental part: Male Sprague-Dawley rats were used to conduct pharmacokinetic experiment.
Test compounds (clopidogrel and exemplary compounds provided herein) was administrated orally or intravenously to rat under fast condition. Blood samples were collected via jugular vein at 5 min, 15 min, 30 min, 60 min and 120 min time points with EDTA-K2 (anticoagulant), 3′-methoxyphenacyl bromide (MPBr, derivatization reagent) and phenylmethylsulfonyl fluoride (PMSF, stabilizer). Plasma samples were then harvested by centrifuging at 1500 g for 10 min under 2˜8° C. and stored at −80° C. after separation. Plasma samples were loaded to a LC-MS/MS instrument after extraction to determine the concentration of the thiol active metabolite.

In another series the test system is platelet aggregation. The series is described as follows: Antiaggregatory action in rats (ex vivo ADP-induced platelet aggregation). Also noted: species or system Male Sprague-Dawley rats. The following applies: rat, oral. The procedure: Male Sprague-Dawley rats were used for ex vivo platelet aggregation experiments. […] The number of platelets in PRP was measured by hematology analyzer (Siemens, ADVIA2120), and adjusted to 4×10^8/mL with PPP. Platelet aggregation was determined using turbidimetric aggregometry method by an automatic platelet aggregometer ([…]). The aggregometer was primarily warmed up to 37° C., and PRP (290 μL) sample was added to the cuvette and set in the automatic platelet aggregometer. […] Antiaggregatory action of test compounds was expressed as inhibition (%) which determined by the relation: […]

For series [2] the following is noted: human body; cited from earlier work.
The conditions of series [3]: loading dose 300-600 mg; cited from earlier work.

Regarding `COC(=O)[C@H](c1ccccc1Cl)N1CCC(SCOC(=O)OC(C)C)/C(=C/C(=O)O)C1` (stereo partly shown) [Compound 1a], the “peak concentration of the thiol active metabolite compared with clopidogrel” value (from here on “peak concentration … compared with clopidogrel”) in series [1] is reported as “significantly higher”.
As for `COC(=O)[C@H](c1ccccc1Cl)N1CCC(SCOC(=O)OC(C)C)/C(=C\C(=O)O)C1` (stereo partly shown) [Compound 1b], the inhibition at 2 mg/kg in the series on platelet aggregation (Platelet, 2 mg/kg, ADP 10 μM, read-out: maximum inhibition of platelet aggregation) was about 45%. Besides, in the series with platelet aggregation (2 mg/kg), the “time to maximum inhibition of platelet aggregation” value was found to be 60 min. Also, the “peak concentration … compared with clopidogrel” value in series [1] is given as “significantly higher”.
With `CCOC(=O)/C=C1\CN([C@H](C(=O)OC)c2ccccc2Cl)CCC1SCOC(=O)OC(C)C` (stereo partly shown) [Compound 2a], the “peak concentration … compared with clopidogrel” value in series [1] is recorded as “significantly higher”.
In the case of `COC(=O)[C@H](c1ccccc1Cl)N1CCc2sccc2C1` [clopidogrel, Clopidogrel], in series [2], the “fraction producing inactive metabolites through non-oxidative hydrolysis” value is “about 85%” and the “fraction undergoing two-step oxidation (cytochrome P450, mainly CYP2C19) to active metabolite H4” value is recorded as “about 15%”. Also, the inhibition at 10 mg/kg in the series on platelet aggregation (Platelet, 10 mg/kg, ADP 10 μM, read-out: maximum inhibition of platelet aggregation) was about 45%. The “time to maximum inhibition of platelet aggregation” value with platelet aggregation (10 mg/kg) is listed as “about 120 minutes”. The “onset of therapeutic effect after loading dose administration” value in series [3] is 2 h.

Values taken from patent publication US20250312326A1, “PHARMACEUTICAL COMPOSITION OF ANTIPLATELET DRUG, AND USE THEREOF” (SHANGHAI CUREGENE PHARMACEUTICAL CO., LTD., priority 2022, published 2025).
